Numbering of substitutions follows the chain as printed.
Columns and labels:
[1] = biological target: T1, ROS-GC1 (rod outer segment guanylate cyclase type 1), full-length recombinant (Bos taurus, UniProt P55203, A1013R); assay: biochemical
T1 construct: gene GUCY2D
T1 sequence (P55203 57-1110 A1013R): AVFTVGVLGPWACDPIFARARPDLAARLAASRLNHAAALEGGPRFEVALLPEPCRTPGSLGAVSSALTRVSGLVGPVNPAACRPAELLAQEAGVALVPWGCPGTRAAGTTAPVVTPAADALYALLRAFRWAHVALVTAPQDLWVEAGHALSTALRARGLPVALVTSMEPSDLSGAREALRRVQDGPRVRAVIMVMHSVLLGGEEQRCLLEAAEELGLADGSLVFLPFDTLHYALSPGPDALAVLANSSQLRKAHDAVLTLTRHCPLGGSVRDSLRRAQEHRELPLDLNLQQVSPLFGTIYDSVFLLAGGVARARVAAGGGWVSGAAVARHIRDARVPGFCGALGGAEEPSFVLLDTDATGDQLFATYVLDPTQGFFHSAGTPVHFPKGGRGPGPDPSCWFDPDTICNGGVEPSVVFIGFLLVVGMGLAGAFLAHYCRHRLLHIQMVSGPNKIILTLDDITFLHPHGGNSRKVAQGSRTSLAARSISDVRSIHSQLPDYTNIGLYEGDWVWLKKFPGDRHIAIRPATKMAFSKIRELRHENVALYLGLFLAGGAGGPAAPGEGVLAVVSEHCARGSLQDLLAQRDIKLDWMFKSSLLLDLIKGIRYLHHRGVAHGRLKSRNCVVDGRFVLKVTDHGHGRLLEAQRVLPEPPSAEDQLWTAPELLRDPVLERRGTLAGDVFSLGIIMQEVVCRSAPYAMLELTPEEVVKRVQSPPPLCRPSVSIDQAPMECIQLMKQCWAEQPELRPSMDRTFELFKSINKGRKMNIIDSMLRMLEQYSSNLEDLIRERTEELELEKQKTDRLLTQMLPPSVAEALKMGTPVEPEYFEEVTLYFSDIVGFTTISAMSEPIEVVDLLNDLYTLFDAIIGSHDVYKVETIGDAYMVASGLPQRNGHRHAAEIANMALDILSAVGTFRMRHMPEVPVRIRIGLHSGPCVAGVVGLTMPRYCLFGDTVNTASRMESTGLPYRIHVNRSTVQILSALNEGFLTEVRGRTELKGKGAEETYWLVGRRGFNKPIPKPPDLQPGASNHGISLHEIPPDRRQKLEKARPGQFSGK

[2] = biological target: T2, ROS-GC1 (rod outer segment guanylate cyclase type 1), full-length recombinant (Bos taurus, UniProt P55203, A1013R/D890A); assay: biochemical
T2 construct: gene GUCY2D
T2 sequence (P55203 57-1110 D890A/A1013R): T1 sequence (P55203 57-1110 A1013R) with D834A

Work on `O=C(O)O` [bicarbonate] yielded an EC50 [1] of 25 mM and an EC50 [2] of roughly 30 mM.

From article PMC5461267, “Membrane Guanylate Cyclase catalytic Subdomain: Structure and Linkage with Calcium Sensors and Bicarbonate” (Frontiers in Molecular Neuroscience, 2017)
